Results from patent US11433053B2, “LSD1 inhibitor and preparation method and application thereof” (CSPC ZHONGQI PHARMACEUTICAL TECHNOLOGY (SHIJIAZHUANG) CO., …, priority 2017, dated 2022).

Columns and labels:
[1] = test system: human small cell lung cancer NCI-H1417 cells subcutaneous xenograft tumor; assay: In vivo pharmacodynamic study, NCI-H1417 subcutaneous xenograft tumor CB-17 SCID mouse model; set-up: species or system CB-17 SCID mice; settings: PO, QD
Protocol: The purpose of this experiment was to investigate the efficacy of some of the compounds of the present invention in the in vivo xenograft tumor of human small cell lung cancer NCI-H1417 cells in a CB-17 SCID mouse model.
Week age and weight: 6-8 weeks old, weight 18-23 g
Human small cell lung cancer NCI-H1417 cells were cultured in vitro in a single layer cultured in RPMI-1640 medium (Sigma-aldrich, R0883), supplemented with 10% fetal bovine serum and cultured at 37° C. 5% CO2. When the cell saturation is 80%-90%. The cells are harvested, counted, and inoculated.
0.2 mL of 10×10^6 (NCI-H1417 cells were subcutaneously inoculated into the right back of each mouse (PBS:Matrigel=1:1). After 21 days of tumor inoculation, group administration was started when the average volume reached 107 mm^3.
The experimental solvent was the 10% hydroxypropyl-β-cyclodextrin solution. The preparation method was as follows: 100 g of hydroxypropyl-β-cyclodextrin was weighed into a 1000 mL jar, 800 mL of ultrapure water was added, stirred overnight until completely dissolved, and then made up to 1000 mL. The test substance was dissolved in a solvent, and was prepared into a uniform solution of a certain concentration and stored at 4° C.
The experimental indicator is to investigate whether tumor growth is inhibited, delayed or cured. Tumor diameters were measured twice a week using vernier calipers. The tumor volume is calculated as: V=0.5a×b^2, and a and b represent the long and short diameters of the tumor, respectively.
The antitumor effect of the compound was evaluated by TG (%). TGI (%), reflecting the tumor growth inhibition rate. TGI (%) calculation: TGI (%)=[1−(the average tumor volume at the end of a treatment group−the average tumor volume at the beginning of the treatment group)/(the average tumor volume at the end of the treatment of the solvent control group−The average tumor volume at the start of treatment in the solvent control group) was ×100%. Solvent control: Vehicle (10% hydroxypropyl-β-cyclodextrin solution).

[2] = Pharmacokinetic evaluation in C57BL/6 mice after intravenous and oral administration; type: in vivo; settings: male, mouse, plasma; for Cmax / clearance / half-life / Vd: IV 1 mg/kg; for Cmax: oral 2 mg/kg, route of Cmax not stated, read-out: max concentration Cmax; for clearance: read-out: clearance CL; for half-life: read-out: half-life T1/2 (IV, h) (converted); for Vd: read-out: volumes of distribution Vdss; for bioavailability: PO 2 mg/kg vs IV 1 mg/kg, read-out: bioavailability F (%); for AUC(0-t): PO 2 mg/kg, read-out: the area under the plasma concentration-time curve AUC0-last PO
Protocol: Experimental purposes: To test the pharmacokinetics of compounds in C57BL/6 mice
C57BL/6 mice (male, 7-9 weeks old, Shanghai Slack)
Test the pharmacokinetics characteristics of rodents after intravenous and oral administration in accordance with standard protocols, and the candidate compound was formulated into a clear solution in the experiment. The mice were administered by intravenous injection and orally once. The intravenous and oral vehicle is a 10% aqueous solution of hydroxypropyl β-cyclodextrin or a physiological saline solution. Six male C57BL/6 mice were employed in this assay, three of them were administered intravenously at a dose of 1 mg/kg, plasma samples were collected at 0 h (before administration) and 0.0833, 0.25, 0.5, 1, 2, 4, 7, 24 h after administration. Another three mice were administered by oral gavage at a dose of 2 mg/kg, plasma samples were collected at 0 h (before administration) and 0.5, 1, 2, 3, 4, 6, 24 h after administration. Collect whole blood samples within 24 hours, centrifuge at 3000 g for 15 minutes, separate the supernatant to obtain a plasma sample, 4 times volume of the internal standard acetonitrile solution was added to precipitate the protein. Centrifuge the supernatant and add an equal volume of water and centrifuge to take the supernatant. LC-MS/MS was used to quantitatively analyze plasma concentrations and calculate pharmacokinetic parameters such as max concentration (Cmax), clearance (CL), half-life (T1/2), volumes of distribution (Vdss), the area under the plasma concentration-time curve (AUC0-last), bioavailability (F), etc.

human LSD1 = human LSD1 (Homo sapiens (Human), UniProt O60341); assay: Evaluation of enzyme activity: LSD1 fluorescence coupling enzyme assay (HRP/Amplex Red); type: biochemical; settings: human LSD1, histone H3(1-21)K4me2 peptide 10 μM, 30 min pre-incubation
Outline: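 Human LSD1 preincubated 30 min with compound, then reacted with H3(1-21)K4me2 peptide (10 μM). FAD-dependent H2O2 detected via HRP/Amplex Red fluorescence (Ex/Em 535/590). Ten-dose, 3-fold dilutions in duplicate from 10 μM gave IC50s, binned into activity classes.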

H1417 cells = assay: Cell proliferation inhibitory activity on H1417 cells (CellTiter-Glo, 10 days); type: cell-based, human; settings: Homo sapiens; for IC50: NCI-H1417, 240 h, H1417 cells, 10 days incubation; for Emax: NCI-H1417, H1417 cells, highest percentage inhibition of cell viability, read-out: Maximum inhibition percentage (%)
Outline: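 H1417 cells in RPMI 1640 with fetal bovine serum were treated with 10-point 3-fold compound dilutions for 10 days. Viability was read by CellTiter-Glo luminescence. IC50 came from a four-parameter fit of percent inhibition, and maximal inhibition was also categorized.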

[3] = 1.5 mg/kg, day 28 after administration
[4] = 5 mg/kg, day 28 after administration
[5] = 1.5 mg/kg, day 27 after administration

Compound: N[C@H]1CC[C@H](c2cc(C3(CN[C@@H]4C[C@H]4c4ccccc4)CC3)no2)CC1 [Example 241]
- TGI (%) [1, 3]: 66%
- Tumor volume (mm^3) (Day 28) [1, 3]: 251 ± 35 mm^3
- TGI (%) [1, 4]: 110%
- Tumor volume (mm^3) (Day 28) [1, 4]: 61 ± 10 mm^3
- Cmax [2]: 49.5 ng/mL
- clearance [2]: 104 mL/min/kg
- half-life [2]: 2.4 h
- Vd [2]: 20.9 L/kg
- bioavailability [2]: 36.7%
- AUC(0-t) [2]: 0.271 µM·h
- IC50 (human LSD1): ≤ 50 nM
- IC50 (H1417 cells): ≤ 100 nM
- Emax (H1417 cells): 70 to 90%

Compound: N[C@H]1CC[C@H](c2nc(C3(CN[C@@H]4C[C@H]4c4ccccc4)CC3)no2)CC1 [Example 144]
- TGI (%) [1, 5]: 83.5%
- Tumor volume (mm^3) (Day 27) [1, 5]: 180 ± 21 mm^3
- Cmax [2]: 25.3 ng/mL
- clearance [2]: 92 mL/min/kg
- half-life [2]: 4.5 h
- Vd [2]: 28.5 L/kg
- bioavailability [2]: 21.5%
- AUC(0-t) [2]: 0.17 µM·h
- IC50 (human LSD1): ≤ 50 nM
- IC50 (H1417 cells): 100 to 500 nM
- Emax (H1417 cells): 90 to 100%

Compound: N[C@H]1CC[C@@H](c2nc(C3(CN[C@@H]4C[C@H]4c4ccccc4)CC3)no2)CC1 [Example 145]
- TGI (%) [1, 5]: 66.6%
- Tumor volume (mm^3) (Day 27) [1, 5]: 250 ± 40 mm^3
- Cmax [2]: 11.9 ng/mL
- clearance [2]: 108 mL/min/kg
- half-life [2]: 11.7 h
- Vd [2]: 81.8 L/kg
- bioavailability [2]: 9.1%
- AUC(0-t) [2]: 0.0654 µM·h
- IC50 (human LSD1): ≤ 50 nM
- IC50 (H1417 cells): 100 to 500 nM
- Emax (H1417 cells): 70 to 90%
